According to US20140079836A1, “METHODS AND COMPOSITIONS FOR ALTERING HEALTH, WELLBEING, AND LIFESPAN” (LifeSpan Extension, LLC, priority 2008, published 2014):

Test system: Custom Array II Genes
Assay: Custom Array II gene expression, antioxidant alone or + UVB
Assay type: cell-based

COC1=C(OC)C(=O)C(CCCCCCCCCCO)=C(C)C1=O [Idebenone, 6-(10-hydroxydecyl)-2,3-dimethoxy-5-methyl-1,4-benzoquin-one]
ACE (NM_000789) Expression (+ UVB): −1.1 | ACTB (NM_001101) Expression (+ UVB): −1.1 | APOE (NM_000041) Expression (+ UVB): −1.2 | BAX (NM_004324) Expression (+ UVB): 1.3 | BCL2 (NM_000633) Expression (+ UVB): 1.6 | BCL2L1 (NM_138578) Expression (+ UVB): 1.0 | BMP2 (NM_001200) Expression (+ UVB): −1.7 | CASP2 (NM_032982) Expression (+ UVB): −1.3 | CASP9 (NM_001229) Expression (+ UVB): 1.0 | CCL4L1 (NM_001001435) Expression (+ UVB): 1.2 | CDKN2A (NM_000077) Expression (+ UVB): −1.0 | CLK1 (NM_004071) Expression (+ UVB): −1.1 | COL1A1 (NM_000088) Expression (+ UVB): −1.0 | COL3A1 (NM_000090) Expression (+ UVB): −1.2 | COX1 (NP_536845) Expression (+ UVB): 1.5 | CREBBP (NM_004380) Expression (+ UVB): −1.1 | CRP (NM_000567) Expression (+ UVB): 1.0 | CYP19A1 (NM_000103) Expression (+ UVB): 1.0 | DDC (NM_000790) Expression (+ UVB): 1.0 | DUSP2 (NM_004418) Expression (+ UVB): 1.1 | EGF (NM_001963) Expression (+ UVB): 1.0 | EGR2 (NM_000399) Expression (+ UVB): 1.7 | FOS (NM_005252) Expression (+ UVB): −1.4 | FOXO3 (NM_001455) Expression (+ UVB): −1.3 | GADPH (NM_002046) Expression (+ UVB): −1.2 | GCH1 (NM_000161) Expression (+ UVB): −1.7 | GH1 (NM_000515) Expression (+ UVB): 1.3 | GPX1 (NM_000581) Expression (+ UVB): −1.1 | HBEGF (NM_001945) Expression (+ UVB): 1.8 | HGDC (SA_00105) Expression (+ UVB): 1.1 | HLA-DRA (NM_019111) Expression (+ UVB): 1.0 | HMOX1 (NM_002133) Expression (+ UVB): 1.0 | HPRT1 (NM_000194) Expression (+ UVB): 1.3 | HSPA1A (NM_005345) Expression (+ UVB): −1.3 | HSPA1B (NM_005346) Expression (+ UVB): −1.3 | HSPA1L (NM_005527) Expression (+ UVB): −1.1 | HSPA6 (NM_002155) Expression (+ UVB): −1.8 | IFI44 (NM_006417) Expression (+ UVB): 1.0 | IGF1 (NM_000618) Expression (+ UVB): 1.1 | IGF2 (NM_000612) Expression (+ UVB): 1.0 | IL1A (NM_000575) Expression (+ UVB): 1.0 | IL6 (NM_000600) Expression (+ UVB): 1.5 | IL8 (NM_000584) Expression (+ UVB): 1.0 | IL10 (NM_000572) Expression (+ UVB): 1.1 | IL11 (NM_000641) Expression (+ UVB): 1.1 | IL33 (NM_033439) Expression (+ UVB): 2.3 | IMMP1L (NM_144981) Expression (+ UVB): 1.2 | JUN (NM_002228) Expression (+ UVB): −1.1 | KIT (NM_000222) Expression (+ UVB): 1.4 | KL (NM_004795) Expression (+ UVB): 1.0 | KRAS (NM_004985) Expression (+ UVB): 1.0 | MAPK14 (NM_001315) Expression (+ UVB): −1.4 | MMP1 (NM_002421) Expression (+ UVB): 1.0 | NADSYN1 (NM_018161) Expression (+ UVB): −1.1 | NEIL1 (NM_024608) Expression (+ UVB): 1.0 | NFKB1 (NM_003998) Expression (+ UVB): −1.1 | NOS1 (NM_000620) Expression (+ UVB): 1.2 | NOS2 (NM_000625) Expression (+ UVB): 1.0 | NOS3 (NM_000603) Expression (+ UVB): −1.0 | PARP1 (NM_001618) Expression (+ UVB): 1.0 | PARP2 (NM_005484) Expression (+ UVB): 1.2 | PARP3 (NM_005485) Expression (+ UVB): 1.1 | PARP4 (NM_006437) Expression (+ UVB): 4.7 | PARP9 (NM_031458) Expression (+ UVB): −1.1 | PDGFRL (NM_006207) Expression (+ UVB): 1.2 | POT1 (NM_015450) Expression (+ UVB): 1.2 | PPARG (NM_015869) Expression (+ UVB): −1.2 | PPARGC1 (NM_013261) Expression (+ UVB): −1.2 | PPC (SA_00103) Expression (+ UVB): 1.0 | PTGS2 (NM_000963) Expression (+ UVB): 1.3 | RAP1A (NM_002884) Expression (+ UVB): −1.2 | RTC (SA_00104) Expression (+ UVB): 1.2 | S100A7 (NM_002963) Expression (+ UVB): 1.3 | SERPINB (NM_002575) Expression (+ UVB): 1.0 | SHC1 (NM_003029) Expression (+ UVB): −1.1 | SIRT1 (NM_012238) Expression (+ UVB): 1.1 | SIRT2 (NM_012237) Expression (+ UVB): −1.1 | SIRT3 (NM_012239) Expression (+ UVB): −1.2 | SIRT4 (NM_012240) Expression (+ UVB): 1.0 | SOD1 (NM_000454) Expression (+ UVB): −1.1 | SOD2 (NM_000636) Expression (+ UVB): 1.0 | TEP1 (NM_007110) Expression (+ UVB): 1.1 | TERF2 (NM_005652) Expression (+ UVB): −1.1 | TERT (NM_198255) Expression (+ UVB): −1.3 | TGFB1 (NM_000660) Expression (+ UVB): −1.2 | TIMM22 (NM_013337) Expression (+ UVB): −1.1 | TIMP3 (NM_000362) Expression (+ UVB): −1.3 | TINF2 (NM_012461) Expression (+ UVB): 1.1 | TNF (NM_000594) Expression (+ UVB): −2.6 | TOMM40 (NM_006114) Expression (+ UVB): −1.8 | TP53 (NM_000546) Expression (+ UVB): −1.3 | TPP1 (NM_000391) Expression (+ UVB): 1.0 | UBE2S (NM_014501) Expression (+ UVB): −1.3 | VEGFA (NM_003376) Expression (+ UVB): −1.3 | ACE (NM_000789) Expression (Alone): −1.0 | ACTB (NM_001101) Expression (Alone): 1.0 | APOE (NM_000041) Expression (Alone): 1.0 | BAX (NM_004324) Expression (Alone): 1.3 | BCL2 (NM_000633) Expression (Alone): 1.2 | BCL2L1 (NM_138578) Expression (Alone): 1.0 | BMP2 (NM_001200) Expression (Alone): 1.1 | CASP2 (NM_032982) Expression (Alone): 1.0 | CASP9 (NM_001229) Expression (Alone): −1.0 | CCL4L1 (NM_001001435) Expression (Alone): 1.0 | CDKN2A (NM_000077) Expression (Alone): 1.0 | CLK1 (NM_004071) Expression (Alone): 1.0 | COL1A1 (NM_000088) Expression (Alone): 1.0 | COL3A1 (NM_000090) Expression (Alone): −1.1 | COX1 (NP_536845) Expression (Alone): 1.0 | CREBBP (NM_004380) Expression (Alone): 1.0 | CRP (NM_000567) Expression (Alone): −1.0 | CYP19A1 (NM_000103) Expression (Alone): 1.4 | DDC (NM_000790) Expression (Alone): 1.0 | DUSP2 (NM_004418) Expression (Alone): 1.0 | EGF (NM_001963) Expression (Alone): 1.0 | EGR2 (NM_000399) Expression (Alone): 1.0 | FOS (NM_005252) Expression (Alone): 1.0 | FOXO3 (NM_001455) Expression (Alone): 1.0 | GADPH (NM_002046) Expression (Alone): 1.3 | GCH1 (NM_000161) Expression (Alone): 1.0 | GH1 (NM_000515) Expression (Alone): 1.0 | GPX1 (NM_000581) Expression (Alone): 1.0 | HBEGF (NM_001945) Expression (Alone): 1.0 | HGDC (SA_00105) Expression (Alone): 1.2 | HLA-DRA (NM_019111) Expression (Alone): 1.0 | HMOX1 (NM_002133) Expression (Alone): −1.0 | HPRT1 (NM_000194) Expression (Alone): 1.2 | HSPA1A (NM_005345) Expression (Alone): −1.0 | HSPA1B (NM_005346) Expression (Alone): −1.0 | HSPA1L (NM_005527) Expression (Alone): 1.0 | HSPA6 (NM_002155) Expression (Alone): −1.1 | IFI44 (NM_006417) Expression (Alone): −1.6 | IGF1 (NM_000618) Expression (Alone): 1.1 | IGF2 (NM_000612) Expression (Alone): 1.0 | IL1A (NM_000575) Expression (Alone): −1.0 | IL6 (NM_000600) Expression (Alone): −1.0 | IL8 (NM_000584) Expression (Alone): −1.2 | IL10 (NM_000572) Expression (Alone): 1.1 | IL11 (NM_000641) Expression (Alone): −1.1 | IL33 (NM_033439) Expression (Alone): −1.1 | IMMP1L (NM_144981) Expression (Alone): −1.0 | JUN (NM_002228) Expression (Alone): 1.0 | KIT (NM_000222) Expression (Alone): −1.3 | KL (NM_004795) Expression (Alone): 1.0 | KRAS (NM_004985) Expression (Alone): −1.4 | MAPK14 (NM_001315) Expression (Alone): 1.0 | MMP1 (NM_002421) Expression (Alone): 1.0 | NADSYN1 (NM_018161) Expression (Alone): 1.2 | NEIL1 (NM_024608) Expression (Alone): 1.5 | NFKB1 (NM_003998) Expression (Alone): −1.5 | NOS1 (NM_000620) Expression (Alone): 1.9 | NOS2 (NM_000625) Expression (Alone): 1.1 | NOS3 (NM_000603) Expression (Alone): 1.0 | PARP1 (NM_001618) Expression (Alone): 1.3 | PARP2 (NM_005484) Expression (Alone): 1.3 | PARP3 (NM_005485) Expression (Alone): −1.0 | PARP4 (NM_006437) Expression (Alone): 1.1 | PARP9 (NM_031458) Expression (Alone): 1.0 | PDGFRL (NM_006207) Expression (Alone): −1.1 | POT1 (NM_015450) Expression (Alone): −1.0 | PPARG (NM_015869) Expression (Alone): −1.0 | PPARGC1 (NM_013261) Expression (Alone): −1.0 | PPC (SA_00103) Expression (Alone): 1.0 | PTGS2 (NM_000963) Expression (Alone): −1.2 | RAP1A (NM_002884) Expression (Alone): 1.3 | RTC (SA_00104) Expression (Alone): 1.1 | S100A7 (NM_002963) Expression (Alone): 1.1 | SERPINB (NM_002575) Expression (Alone): 1.1 | SHC1 (NM_003029) Expression (Alone): −1.4 | SIRT1 (NM_012238) Expression (Alone): −1.2 | SIRT2 (NM_012237) Expression (Alone): −1.0 | SIRT3 (NM_012239) Expression (Alone): −1.1 | SIRT4 (NM_012240) Expression (Alone): 1.1 | SOD1 (NM_000454) Expression (Alone): −1.0 | SOD2 (NM_000636) Expression (Alone): −1.2 | TEP1 (NM_007110) Expression (Alone): 1.1 | TERF2 (NM_005652) Expression (Alone): 1.0 | TERT (NM_198255) Expression (Alone): 1.1 | TGFB1 (NM_000660) Expression (Alone): −1.1 | TIMM22 (NM_013337) Expression (Alone): 1.1 | TIMP3 (NM_000362) Expression (Alone): 1.2 | TINF2 (NM_012461) Expression (Alone): 1.1 | TNF (NM_000594) Expression (Alone): −1.1 | TOMM40 (NM_006114) Expression (Alone): 1.0 | TP53 (NM_000546) Expression (Alone): −1.1 | TPP1 (NM_000391) Expression (Alone): −1.1 | UBE2S (NM_014501) Expression (Alone): 1.2 | VEGFA (NM_003376) Expression (Alone): −1.7
